Data reported in article PMC7558026, “Exploring and applying the substrate promiscuity of a C-glycosyltransferase in the chemo-enzymatic synthesis of bioactive C-glycosides” (Nature Communications, 2020).
Where “and” joins values, the source holds several entries; their conditions need not be identical. Equal values may be shown once.

Key:
AbCGT [1] = assay: Effects of pH, temperature and divalent metal ions on AbCGT activity (phloretin 17 + UDP-Glc); assay type: biochemical, Aloe barbadensis; conditions: for relative activity / conversion rates of Phloretin: in presence of the divalent cation or EDTA; for relative activity: relative to CK; for effect of divalent metal ion on catalytic activity of AbCGT (in words): 5 mM, phloretin (17) + UDP-Glc, 10 min
Procedure: To assay for the optimal reaction temperature, the reaction mixtures were incubated at pH 11.0 and different temperatures (15–60 °C). To test the necessity of divalent metal ions for AbCGT, BaCl2, CaCl2, CoCl2, CuCl2, FeCl2, MgCl2, MnCl2, ZnCl2, and EDTA were used individually at a final concentration of 5 mM. […] For quantification, three parallel assays were routinely carried out.

AbCGT [2] = target: AbCGT (Aloe vera, UniProt A0A7G9P699); assay: Glycosyltransferase activity assay, purified AbCGT (wild type) with aglycon acceptors and UDP-Glc; assay type: biochemical, Aloe barbadensis; conditions: aglycon acceptor with UDP-Glc, pH 7.4, 30 °C, up to 12 h; Reaction-1 to -3
Procedure: Due to the instability of some acceptors in the buffer of pH 11.0, the reactions were performed under the physiological conditions (pH 7.4, 30 °C) to compare the catalytic activities of AbGT27 with different substrates under the same conditions. The reactions were performed at 30 °C for up to 12 h and terminated by the addition of 200 μL of ice-cold methanol. Subsequently, samples were centrifuged at 15,000 × g for 30 min to collect the supernatant, and aliquots were analyzed by HPLC-UV/ESIMS. […] The gradient programs were used for the analysis of the reactions (Supplementary Table 6). The conversion rates of the enzyme reactions were calculated from peak areas of glycosylated products and substrates as analyzed by HPLC. To facilitate inferential statistical analysis, three parallel assays were routinely performed; the means ± SD from triplicate analyses are reported here.

AbCGT (Aloe vera, UniProt A0A7G9P699), sequence (A0A7G9P699 entry or part of it): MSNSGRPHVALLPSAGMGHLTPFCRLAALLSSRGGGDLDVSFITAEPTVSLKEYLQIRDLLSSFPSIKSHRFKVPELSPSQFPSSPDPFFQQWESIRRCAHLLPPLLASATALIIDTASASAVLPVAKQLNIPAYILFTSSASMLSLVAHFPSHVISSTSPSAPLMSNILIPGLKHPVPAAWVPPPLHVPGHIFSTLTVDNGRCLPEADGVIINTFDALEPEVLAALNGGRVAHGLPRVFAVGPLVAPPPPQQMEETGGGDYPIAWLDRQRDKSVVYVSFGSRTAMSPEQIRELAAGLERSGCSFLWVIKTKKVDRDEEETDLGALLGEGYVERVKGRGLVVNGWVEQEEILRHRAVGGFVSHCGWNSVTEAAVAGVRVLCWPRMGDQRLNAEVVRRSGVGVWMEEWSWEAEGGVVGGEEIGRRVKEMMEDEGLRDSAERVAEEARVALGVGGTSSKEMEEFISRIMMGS

SMILES	relative activity (AbCGT [1]; reaction-1)	relative activity (AbCGT [1]; reaction-2)	relative activity (AbCGT [1]; reaction-3)	conversion rates of Phloretin (AbCGT [1]; reaction-1)	conversion rates of Phloretin (AbCGT [1]; reaction-2)	conversion rates of Phloretin (AbCGT [1]; reaction-3)	effect of divalent metal ion on catalytic activity of AbCGT (in words) (AbCGT [1])	conversion rates, O,N,S-glycosylation (AbCGT [2])	conversion rates, di-C-glycosylation (AbCGT [2])	conversion rates, mono-C-glycosylation (AbCGT [2])
[Ba+2].[Cl-].[Cl-] [Ba2+]	119.8	122.9	119.3	62	63.6	61.7	–	–	–	–
[Ba+2].[Cl-].[Cl-] [Ba^2+]	–	–	–	–	–	–	greatly enhanced the catalytic activity of AbCGT	–	–	–
[Ca+2].[Cl-].[Cl-] [Ca2+]	149.8	161.0	139.4	77.5	83.3	72.1	–	–	–	–
[Ca+2].[Cl-].[Cl-] [Ca^2+]	–	–	–	–	–	–	greatly enhanced the catalytic activity of AbCGT	–	–	–
[Co+2] [Co2+]	36.5	41.0	43.9	18.9	21.2	22.7	–	–	–	–
Cc1cc(O)cc(O)c1C=O [Compound 8]	–	–	–	–	–	–	–	0%	0%	86.7% and 87.5% and 90.2%
CC(=O)c1c(C)cc(O)cc1O [Compound 9]	–	–	–	–	–	–	–	0%	0%	45.2% and 41.8% and 43%
O=Cc1c(O)cc(O)cc1O [Compound 10]	–	–	–	–	–	–	–	0%	100%	0%
CC(=O)c1c(O)cc(O)c(C(C)=O)c1O [Compound 12]	–	–	–	–	–	–	–	0%	0%	100%
COc1cc(OC)c(C(C)=O)c(OC)c1 [Compound 15]	–	–	–	–	–	–	–	0%	0%	0%
CCCCC(=O)c1c(O)cc(O)cc1O [Compound 16]	–	–	–	–	–	–	–	0%	100%	0%
O=C(OCCCc1ccccc1)c1c(O)cc(O)cc1O [Compound 18]	–	–	–	–	–	–	–	0%	93.8% and 92% and 91.6%	3.2% and 4.7% and 4%
O=C(c1ccc(O)c(O)c1)c1c(O)cc(O)cc1O [Compound 19]	–	–	–	–	–	–	–	0%	63% and 63.5% and 65.1%	37% and 36.5% and 34.9%
Cc1cc(=O)oc2cc(O)ccc12 [Compound 24, 7-hydroxy-4-methylcoumarin]	–	–	–	–	–	–	–	90% and 92% and 94.8%	0%	0%
Cc1cc(=O)oc2cc(S)ccc12 [Compound 25, 7-mercapto-4-methylcoumarin]	–	–	–	–	–	–	–	87% and 86% and 85.3%	0%	0%
[Cu+2] [Cu2+]	0.0	0.0	0.0	0	0	0	–	–	–	–
O=C(O)CN(CCN(CC(=O)O)CC(=O)O)CC(=O)O [EDTA]	89.5	90.9	102.3	46.3	47	52.9	–	–	–	–
[Fe+2] [Fe2+]	23.0	24.7	18.0	11.9	12.8	9.3	–	–	–	–
[Cl-].[Cl-].[Mg+2] [Mg2+]	157.2	160.4	167.6	81.3	83	86.7	–	–	–	–
[Cl-].[Cl-].[Mg+2] [Mg^2+]	–	–	–	–	–	–	greatly enhanced the catalytic activity of AbCGT	–	–	–
[Cl][Mn][Cl] [Mn2+]	162.4	178.6	171.3	84	92.4	88.6	–	–	–	–
[Cl][Mn][Cl] [Mn^2+]	–	–	–	–	–	–	greatly enhanced the catalytic activity of AbCGT	–	–	–
[Ni+2] [Ni2+]	13.7	12.0	15.5	7.1	6.2	8	–	–	–	–
[Zn+2] [Zn2+]	1.9	3.9	1.9	1	2	1	–	–	–	–
